Data published in ChEMBL document CHEMBL1201862, “PubChem BioAssay data set” (2004).
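These data come from cells grown in 96-well plates and exposed to compound for 48 hours at five concentrations. Abbreviation: GI50, concentration required for 50% inhibition of growth.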 Active and inactive are the calls of the source. No stated cut-off is given here; in the data, active = GI50 up to about 1.1 µM and inactive = higher.

Legend:
Experiment in all cases: DTP human tumour cell line panel, 48 h
786-0 = system: 786-0
CAKI-1 = system: CAKI-1
CCRF-CEM = system: CCRF-CEM
DU-145 = system: DU-145
HCC 2998 = system: HCC 2998
HCT-15 = system: HCT-15
HL-60 = system: HL-60
HT-29 = system: HT-29
K562 = system: K562
LOX IMVI = system: LOX IMVI
MDA-MB-231 = system: MDA-MB-231
MDA-MB-435 = system: MDA-MB-435
MDA-N = system: MDA-N
NCI/ADR-RES = system: NCI/ADR-RES
OVCAR-3 = system: OVCAR-3
RPMI-8226 = system: RPMI-8226
SF-268 = system: SF-268
SF-295 = system: SF-295
SN12C = system: SN12C
SNB-19 = system: SNB-19

In the case of O=C(CNc1c(Cl)cccc1Cl)NC1C=Cc2ccc(S(=O)(=O)Nc3c(Cl)cccc3Cl)cc2C1=O (stereo not given), the GI50 (786-0) is reported as > 100 µM (inactive), the GI50 (CAKI-1) is reported as 47.5 µM (inactive) and the GI50 (CCRF-CEM) is reported as 53.2 µM (inactive). The GI50 (DU-145) was > 100 µM (inactive), the GI50 (HCC 2998) was 67.5 µM (inactive) and the GI50 (HCT-15) was 79.1 µM. The GI50 (HL-60) was 75.2 µM (inactive), the GI50 (HT-29) was 50.2 µM (inactive) and the GI50 (K562) was > 100 µM (inactive). For the same compound, the GI50 (LOX IMVI) was 88.7 µM (inactive), the GI50 (MDA-MB-231) was 51.3 µM (inactive) and the GI50 (MDA-MB-435) was > 100 µM (inactive). The GI50 (MDA-N) was > 100 µM (inactive), the GI50 (NCI/ADR-RES) was > 100 µM (inactive) and the GI50 (OVCAR-3) was 42.5 µM (inactive). For the same compound, the GI50 (RPMI-8226) was > 100 µM (inactive), the GI50 (SF-268) was 48.3 µM (inactive) and the GI50 (SF-295) was 70.8 µM (inactive). For the same compound, the GI50 (SN12C) was > 100 µM (inactive) and the GI50 (SNB-19) was > 100 µM (inactive).
